Like-named read-outs stand apart in the source and are kept apart here.
Assays:
[1] = target: EGFR del19/C797S (Homo sapiens, UniProt P00533, C797S/DEL746-750); assay: Biochemical EGFR kinase assay (Lance Ultra TR-FRET), double mutant del19/C797S
Outline: (§1)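 Enzyme reactions lasted 1 hour at room temperature with test compounds between 0.003 and 10 μM, followed by 10 mM EDTA quench.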

[2] = target: EGFR del19/T790M/C797S (Homo sapiens, UniProt P00533, C797S/DEL746-750/T790M); assay: Biochemical EGFR kinase assay (Lance Ultra TR-FRET), triple mutant del19/T790M/C797S
Outline: as §1

[3] = target: EGFR wildtype (WT) (Homo sapiens, UniProt P00533); assay: Biochemical EGFR kinase assay (Lance Ultra TR-FRET), wildtype
Outline: as §1

[4] = target: EGFR L858R/T790M/C797S (Homo sapiens, UniProt P00533, C797S/L858R/T790M); assay: Biochemical EGFR kinase assay (Lance Ultra TR-FRET), triple mutant L858R/T790M/C797S
Outline: as §1

[5] = target: EGFR L858R/C797S (Homo sapiens, UniProt P00533, C797S/L858R); assay: Biochemical EGFR kinase assay (Lance Ultra TR-FRET), double mutant L858R/C797S
Outline: as §1

[6] = Km ATP, read-out: IC50 del19/C797S (nM) Km ATP
[7] = Km ATP, read-out: IC50 del19/T790M/C797S (nM) Km ATP
[8] = Km ATP, read-out: IC50 WT (nM) Km ATP
[9] = Km ATP, read-out: IC50 L858R/T790M/C797S (nM) Km ATP
[10] = Km ATP, read-out: IC50 L858R/C797S (nM) Km ATP
[11] = IC50 del19/T790M/C797S (nM) 100 μM ATP, 100 μM ATP
[12] = IC50 WT (nM) 100 μM ATP, 100 μM ATP
[13] = IC50 L858R/C797S (nM) 100 μM ATP, 100 μM ATP
[14] = IC50 del19/C797S (nM) 100 μM ATP, 100 μM ATP
[15] = IC50 L858R/T790M/C797S (nM) 100 μM ATP, 100 μM ATP

EGFR del19/C797S, sequence (P00533 with tags, fused parts or gaps DEL746-750/C797S): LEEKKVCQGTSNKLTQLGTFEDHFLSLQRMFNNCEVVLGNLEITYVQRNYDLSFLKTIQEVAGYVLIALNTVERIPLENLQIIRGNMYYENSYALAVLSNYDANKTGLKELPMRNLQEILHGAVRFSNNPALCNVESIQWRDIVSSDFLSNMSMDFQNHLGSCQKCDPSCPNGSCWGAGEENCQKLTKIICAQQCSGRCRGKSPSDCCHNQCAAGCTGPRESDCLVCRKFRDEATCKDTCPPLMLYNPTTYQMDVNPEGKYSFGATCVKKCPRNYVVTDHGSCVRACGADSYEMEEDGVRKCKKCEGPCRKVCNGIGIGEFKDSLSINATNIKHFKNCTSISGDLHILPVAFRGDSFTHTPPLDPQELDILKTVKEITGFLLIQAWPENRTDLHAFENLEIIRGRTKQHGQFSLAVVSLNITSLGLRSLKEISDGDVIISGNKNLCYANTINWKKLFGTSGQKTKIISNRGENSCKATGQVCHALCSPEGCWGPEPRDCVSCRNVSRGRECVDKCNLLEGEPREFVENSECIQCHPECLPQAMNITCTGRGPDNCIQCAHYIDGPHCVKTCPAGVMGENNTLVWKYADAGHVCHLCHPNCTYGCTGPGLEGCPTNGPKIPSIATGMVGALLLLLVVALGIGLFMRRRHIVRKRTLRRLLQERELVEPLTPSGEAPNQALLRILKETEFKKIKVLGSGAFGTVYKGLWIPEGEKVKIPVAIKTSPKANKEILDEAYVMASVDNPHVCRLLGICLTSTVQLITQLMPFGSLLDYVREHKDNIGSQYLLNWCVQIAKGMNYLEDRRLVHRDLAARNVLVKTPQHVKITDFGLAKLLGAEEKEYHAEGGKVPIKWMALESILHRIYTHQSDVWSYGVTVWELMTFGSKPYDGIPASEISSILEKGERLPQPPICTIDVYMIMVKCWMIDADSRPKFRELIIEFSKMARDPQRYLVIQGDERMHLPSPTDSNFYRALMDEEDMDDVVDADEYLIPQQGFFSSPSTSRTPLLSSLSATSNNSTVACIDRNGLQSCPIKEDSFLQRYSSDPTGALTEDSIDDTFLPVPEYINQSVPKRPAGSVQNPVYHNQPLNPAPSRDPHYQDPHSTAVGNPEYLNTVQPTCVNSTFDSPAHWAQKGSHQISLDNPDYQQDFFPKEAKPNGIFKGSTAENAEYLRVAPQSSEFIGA
EGFR del19/T790M/C797S, sequence (P00533 with tags, fused parts or gaps DEL746-750/T790M/C797S): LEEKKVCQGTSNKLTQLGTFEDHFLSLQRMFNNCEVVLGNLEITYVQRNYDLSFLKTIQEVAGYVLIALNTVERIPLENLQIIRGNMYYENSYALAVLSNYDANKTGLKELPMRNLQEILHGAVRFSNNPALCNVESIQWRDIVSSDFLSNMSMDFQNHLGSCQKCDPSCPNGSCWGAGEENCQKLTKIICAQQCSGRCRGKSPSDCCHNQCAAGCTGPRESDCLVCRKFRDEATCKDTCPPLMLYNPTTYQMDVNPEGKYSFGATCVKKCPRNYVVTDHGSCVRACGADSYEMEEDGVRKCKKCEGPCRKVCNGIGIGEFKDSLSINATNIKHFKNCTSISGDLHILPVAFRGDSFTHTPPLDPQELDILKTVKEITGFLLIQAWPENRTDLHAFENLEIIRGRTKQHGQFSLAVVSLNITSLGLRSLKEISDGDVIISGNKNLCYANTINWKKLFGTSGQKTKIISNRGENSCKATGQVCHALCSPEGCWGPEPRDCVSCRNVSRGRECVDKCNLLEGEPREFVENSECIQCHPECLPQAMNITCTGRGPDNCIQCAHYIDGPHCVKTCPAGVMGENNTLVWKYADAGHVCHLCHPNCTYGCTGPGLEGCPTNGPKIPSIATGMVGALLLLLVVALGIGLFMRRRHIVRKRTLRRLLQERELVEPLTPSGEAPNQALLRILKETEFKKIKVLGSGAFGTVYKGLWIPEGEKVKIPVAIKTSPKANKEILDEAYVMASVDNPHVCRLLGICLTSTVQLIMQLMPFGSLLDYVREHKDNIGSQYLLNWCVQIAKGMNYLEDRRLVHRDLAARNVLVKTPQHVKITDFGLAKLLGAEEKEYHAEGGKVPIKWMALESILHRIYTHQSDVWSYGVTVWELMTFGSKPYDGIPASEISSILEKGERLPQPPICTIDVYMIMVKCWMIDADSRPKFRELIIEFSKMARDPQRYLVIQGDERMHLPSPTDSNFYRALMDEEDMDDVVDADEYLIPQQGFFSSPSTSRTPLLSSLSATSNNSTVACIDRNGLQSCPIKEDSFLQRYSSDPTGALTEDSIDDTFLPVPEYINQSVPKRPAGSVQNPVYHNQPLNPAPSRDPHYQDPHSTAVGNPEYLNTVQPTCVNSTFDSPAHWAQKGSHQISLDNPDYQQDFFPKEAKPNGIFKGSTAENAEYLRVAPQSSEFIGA
EGFR wildtype (WT), sequence (P00533 25-1210): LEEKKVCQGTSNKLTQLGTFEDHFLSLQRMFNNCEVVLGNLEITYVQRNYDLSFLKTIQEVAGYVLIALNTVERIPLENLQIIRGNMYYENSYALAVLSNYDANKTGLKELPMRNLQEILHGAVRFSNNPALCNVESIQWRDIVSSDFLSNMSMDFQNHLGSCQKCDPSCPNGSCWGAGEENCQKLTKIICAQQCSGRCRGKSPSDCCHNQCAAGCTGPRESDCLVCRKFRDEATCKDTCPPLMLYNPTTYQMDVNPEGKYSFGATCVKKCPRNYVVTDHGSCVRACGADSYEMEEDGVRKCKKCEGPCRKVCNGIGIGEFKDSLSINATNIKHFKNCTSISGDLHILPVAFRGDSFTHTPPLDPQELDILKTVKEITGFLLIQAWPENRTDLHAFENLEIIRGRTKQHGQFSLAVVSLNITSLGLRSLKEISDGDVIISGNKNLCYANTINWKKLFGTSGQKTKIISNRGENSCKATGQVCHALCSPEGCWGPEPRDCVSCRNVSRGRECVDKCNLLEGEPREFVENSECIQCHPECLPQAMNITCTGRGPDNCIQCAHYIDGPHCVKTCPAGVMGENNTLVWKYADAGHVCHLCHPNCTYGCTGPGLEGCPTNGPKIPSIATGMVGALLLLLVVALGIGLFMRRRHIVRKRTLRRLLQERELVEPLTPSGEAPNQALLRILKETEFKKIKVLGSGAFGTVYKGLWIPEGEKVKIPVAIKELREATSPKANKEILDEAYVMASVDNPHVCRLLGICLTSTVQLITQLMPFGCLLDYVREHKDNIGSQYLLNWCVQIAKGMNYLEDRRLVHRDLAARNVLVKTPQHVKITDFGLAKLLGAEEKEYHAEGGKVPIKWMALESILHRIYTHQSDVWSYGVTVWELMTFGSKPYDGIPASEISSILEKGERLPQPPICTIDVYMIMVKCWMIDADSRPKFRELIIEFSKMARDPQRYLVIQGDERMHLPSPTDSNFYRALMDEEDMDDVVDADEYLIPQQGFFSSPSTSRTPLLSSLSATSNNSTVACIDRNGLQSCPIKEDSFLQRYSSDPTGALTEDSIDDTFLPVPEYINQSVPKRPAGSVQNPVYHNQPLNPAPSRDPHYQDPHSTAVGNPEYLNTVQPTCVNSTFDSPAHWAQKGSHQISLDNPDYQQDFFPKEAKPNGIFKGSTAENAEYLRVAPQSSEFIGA
EGFR L858R/C797S, sequence (P00533 25-1210 C797S/L858R): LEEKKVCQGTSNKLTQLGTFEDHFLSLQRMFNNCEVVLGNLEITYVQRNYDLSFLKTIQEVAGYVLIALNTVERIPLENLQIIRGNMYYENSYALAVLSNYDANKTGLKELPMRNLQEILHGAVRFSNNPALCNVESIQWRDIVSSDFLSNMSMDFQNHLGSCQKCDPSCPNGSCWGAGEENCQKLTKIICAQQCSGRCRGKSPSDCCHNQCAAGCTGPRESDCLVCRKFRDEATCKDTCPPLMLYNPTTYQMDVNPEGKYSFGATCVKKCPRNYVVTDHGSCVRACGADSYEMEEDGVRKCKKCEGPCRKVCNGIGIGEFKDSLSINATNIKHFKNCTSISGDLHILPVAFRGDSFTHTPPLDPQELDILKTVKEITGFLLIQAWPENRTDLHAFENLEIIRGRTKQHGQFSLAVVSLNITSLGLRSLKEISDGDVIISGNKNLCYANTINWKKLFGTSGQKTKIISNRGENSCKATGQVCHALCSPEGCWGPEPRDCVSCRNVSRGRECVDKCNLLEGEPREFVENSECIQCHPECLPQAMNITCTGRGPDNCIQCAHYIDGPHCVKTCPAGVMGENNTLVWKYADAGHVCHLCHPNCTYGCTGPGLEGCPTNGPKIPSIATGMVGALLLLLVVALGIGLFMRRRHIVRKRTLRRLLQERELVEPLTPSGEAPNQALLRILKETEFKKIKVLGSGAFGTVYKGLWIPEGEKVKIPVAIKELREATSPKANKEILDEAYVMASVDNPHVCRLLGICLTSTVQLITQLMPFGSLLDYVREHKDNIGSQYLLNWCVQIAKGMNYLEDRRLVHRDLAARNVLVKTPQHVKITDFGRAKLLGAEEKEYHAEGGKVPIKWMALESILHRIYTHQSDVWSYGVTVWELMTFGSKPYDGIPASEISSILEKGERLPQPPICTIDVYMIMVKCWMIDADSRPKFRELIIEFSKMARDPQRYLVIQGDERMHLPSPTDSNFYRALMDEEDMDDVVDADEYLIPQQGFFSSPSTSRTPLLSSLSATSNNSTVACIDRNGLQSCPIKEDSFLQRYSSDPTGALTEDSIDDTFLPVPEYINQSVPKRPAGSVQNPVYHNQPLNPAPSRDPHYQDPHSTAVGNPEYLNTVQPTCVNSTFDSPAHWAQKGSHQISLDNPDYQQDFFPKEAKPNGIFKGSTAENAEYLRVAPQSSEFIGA

SMILES | IC50 [1, 6] [nM] | IC50 [2, 7] [nM] | IC50 [3, 8] [nM] | IC50 [4, 9] [nM] | IC50 [5, 10] [nM] | IC50 [2, 11] [nM] | IC50 [3, 12] [nM] | IC50 [5, 13] [nM] | IC50 [1, 14] [nM] | IC50 [4, 15] [nM]
CC(C)Nc1cc(Nc2ccnc(-c3cnn(S(=O)(=O)C4CC4)c3)n2)ncc1-c1ccn(CC(F)F)n1 [Example 248, N^2-(2-(1-(Cyclopropylsulfonyl)-1H-pyrazol-4-yl)pyrimidin-4-yl)-5-(1-(2,2-difluoroethyl)-1H-pyrazol-3-yl)-N^4-isopropylpyridine-2,4-diamine] | 14.7 | 0.5 | 286 | 0.3 | 4.8 | – | – | – | – | –
CN(C)C[C@H]1C[C@H](CNc2cc(Nc3ccnc(-c4cnn(S(=O)(=O)C5CC5)c4)n3)ncc2-c2ccn(CC(F)F)n2)C1 [Example 249, N^2-(2-(1-(Cyclopropylsulfonyl)-1H-pyrazol-4-yl)pyrimidin-4-yl)-5-(1-(2,2-difluoroethyl)-1H-pyrazol-3-yl)-N^4-(((1r,3r)-3-((dimethylamino)methyl)cyclobutyl)methyl)pyridine-2,4-diamine] | 11.5 | 0.4 | 7.5 | 0.1 | 6.1 | – | – | – | – | –
CCC(C)Nc1cc(Nc2ccnc(-c3cnn(S(=O)(=O)C4CC4)c3)n2)ncc1-c1ccn(CC(F)F)n1 (stereo not shown) [Example 250, N^4-(sec-Butyl)-N^2-(2-(1-(cyclopropylsulfonyl)-1H-pyrazol-4-yl)pyrimidin-4-yl)-5-(1-(2,2-difluoroethyl)-1H-pyrazol-3-yl)pyridine-2,4-diamine] | 63.8 | 0.9 | 56.1 | 0.9 | 4.4 | – | – | – | – | –
CN(C)CC[C@H]1CC[C@@H](Nc2cc(Nc3ccnc(-c4cnn(S(=O)(=O)C5CC5)c4)n3)ncc2-c2ccn(CC(F)F)n2)CC1 [Example 251, N^2-(2-(1-(Cyclopropylsulfonyl)-1H-pyrazol-4-yl)pyrimidin-4-yl)-5-(1-(2,2-difluoroethyl)-1H-pyrazol-3-yl)-N^4-((1s,4s)-4-(2-(dimethylamino)ethyl)cyclohexyl)pyridine-2,4-diamine] | 0.4 | 0.7 | 0.3 | 0.2 | 0.1 | – | – | – | – | –
Cn1nc(-c2cnc(Nc3ccnc(-c4cnn(S(=O)(=O)C5CC5)c4)n3)cc2N[C@H]2CC[C@@](C)(O)CC2)cc1C(F)(F)F [Example 252, (1s,4s)-4-((2-((2-(1-(Cyclopropylsulfonyl)-1H-pyrazol-4-yl)pyrimidin-4-yl)amino)-5-(1-methyl-5-(trifluoromethyl)-1H-pyrazol-3-yl)pyridin-4-yl)amino)-1-methylcyclohexan-1-ol] | 1.2 | – | 3 | 0.8 | 4.3 | 0.7 | > 10000 | 9.8 | – | –
Cn1nc(-c2cnc(Nc3ccnc(-c4cnn(S(=O)(=O)C5CC5)c4)n3)cc2N[C@H]2CC[C@@H](CO)CC2)cc1C(F)(F)F [Example 253, ((1s,4s)-4-((2-((2-(1-(Cyclopropylsulfonyl)-1H-pyrazol-4-yl)pyrimidin-4-yl)amino)-5-(1-methyl-5-(trifluoromethyl)-1H-pyrazol-3-yl)pyridin-4-yl)amino)cyclohexyl)methanol] | 2.3 | – | 3.4 | 0.9 | 7 | 1.1 | 618 | 10.6 | 3.2 | 2.1
Cn1nc(-c2cnc(Nc3ccnc(-c4cnn(S(=O)(=O)C5CC5)c4)n3)cc2N[C@H]2CC[C@@H](C(C)(C)O)CC2)cc1C(F)(F)F [Example 254, 2-((1s,4s)-4-((2-((2-(1-(Cyclopropylsulfonyl)-1H-pyrazol-4-yl)pyrimidin-4-yl)amino)-5-(1-methyl-5-(trifluoromethyl)-1H-pyrazol-3-yl)pyridin-4-yl)amino)cyclohexyl)propan-2-ol] | 5.5 | 3.7 | 12.9 | 1.7 | 18.5 | 3.9 | > 10000 | 33.5 | 6.5 | 6.5

Reference: patent US12258327B2, “5-membered heteroaryl-containing aminopyridine compounds as EGFR inhibitors” (YUHAN CORPORATION, priority 2021, dated 2025)
